According to ChEMBL document CHEMBL1155991, “Discovery of isoxazole voltage gated sodium channel blockers for treatment of chronic pain” (Bioorg Med Chem Lett, 2009):

Key:
[1] = biological target: T1, Sodium channel protein type 9 subunit alpha (Homo sapiens, UniProt Q15858); test: Inhibition of human Nav1.7 channel expressed in HEK293 cells by FRET assay; assay type: cell-based
Target sequence in this assay (Q15858 whole entry): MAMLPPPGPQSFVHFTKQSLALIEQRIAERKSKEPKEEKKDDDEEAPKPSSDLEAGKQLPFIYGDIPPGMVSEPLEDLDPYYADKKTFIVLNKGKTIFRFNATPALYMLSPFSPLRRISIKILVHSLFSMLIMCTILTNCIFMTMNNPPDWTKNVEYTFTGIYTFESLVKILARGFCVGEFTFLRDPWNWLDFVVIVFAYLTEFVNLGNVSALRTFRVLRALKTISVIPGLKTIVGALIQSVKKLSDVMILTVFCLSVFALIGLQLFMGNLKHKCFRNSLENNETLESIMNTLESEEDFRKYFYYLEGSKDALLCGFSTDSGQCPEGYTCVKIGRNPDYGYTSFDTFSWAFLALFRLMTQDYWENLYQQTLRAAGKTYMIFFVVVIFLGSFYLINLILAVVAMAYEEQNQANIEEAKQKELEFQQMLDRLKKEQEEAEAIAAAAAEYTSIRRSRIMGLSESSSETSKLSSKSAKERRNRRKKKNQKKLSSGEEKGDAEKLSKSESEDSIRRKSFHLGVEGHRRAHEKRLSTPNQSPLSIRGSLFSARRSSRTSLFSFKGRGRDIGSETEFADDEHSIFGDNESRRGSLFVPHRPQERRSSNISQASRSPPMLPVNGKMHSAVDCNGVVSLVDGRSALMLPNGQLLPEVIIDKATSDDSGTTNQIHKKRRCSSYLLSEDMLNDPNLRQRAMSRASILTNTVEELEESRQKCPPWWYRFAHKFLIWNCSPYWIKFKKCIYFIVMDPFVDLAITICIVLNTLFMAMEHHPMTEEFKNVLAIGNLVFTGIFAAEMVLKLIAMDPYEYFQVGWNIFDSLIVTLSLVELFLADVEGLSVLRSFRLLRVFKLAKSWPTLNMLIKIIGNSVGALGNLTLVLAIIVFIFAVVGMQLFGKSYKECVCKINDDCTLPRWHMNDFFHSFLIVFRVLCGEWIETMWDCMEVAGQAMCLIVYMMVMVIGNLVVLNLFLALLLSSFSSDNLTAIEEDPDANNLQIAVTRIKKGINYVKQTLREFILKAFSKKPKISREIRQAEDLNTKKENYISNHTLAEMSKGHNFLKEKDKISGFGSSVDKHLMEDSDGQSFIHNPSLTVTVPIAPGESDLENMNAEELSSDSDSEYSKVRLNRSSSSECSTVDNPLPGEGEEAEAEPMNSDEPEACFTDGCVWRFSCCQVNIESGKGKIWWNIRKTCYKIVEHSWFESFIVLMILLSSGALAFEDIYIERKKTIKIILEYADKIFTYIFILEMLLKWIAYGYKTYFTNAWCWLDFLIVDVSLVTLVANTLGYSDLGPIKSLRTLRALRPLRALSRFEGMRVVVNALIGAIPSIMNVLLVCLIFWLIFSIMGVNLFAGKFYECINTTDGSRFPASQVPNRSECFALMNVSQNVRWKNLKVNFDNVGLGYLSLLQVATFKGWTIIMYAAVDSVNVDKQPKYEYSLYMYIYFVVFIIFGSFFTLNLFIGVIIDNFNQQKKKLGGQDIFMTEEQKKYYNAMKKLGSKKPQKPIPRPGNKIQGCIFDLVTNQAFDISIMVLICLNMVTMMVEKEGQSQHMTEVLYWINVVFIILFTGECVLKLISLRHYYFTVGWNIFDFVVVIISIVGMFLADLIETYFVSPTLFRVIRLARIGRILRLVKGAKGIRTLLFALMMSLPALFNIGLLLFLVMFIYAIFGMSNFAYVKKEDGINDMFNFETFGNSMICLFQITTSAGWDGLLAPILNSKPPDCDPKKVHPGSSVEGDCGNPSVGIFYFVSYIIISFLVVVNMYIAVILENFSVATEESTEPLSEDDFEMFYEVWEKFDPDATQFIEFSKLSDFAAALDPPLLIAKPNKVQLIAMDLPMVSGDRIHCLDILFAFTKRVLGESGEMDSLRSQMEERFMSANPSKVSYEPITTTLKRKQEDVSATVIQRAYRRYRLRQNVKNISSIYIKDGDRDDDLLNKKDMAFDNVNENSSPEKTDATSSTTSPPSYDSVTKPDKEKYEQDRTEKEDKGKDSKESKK

[2] = biological target: Voltage-gated inwardly rectifying potassium channel KCNH2 (Homo sapiens, UniProt Q12809); test: (§1) Displacement of [35S]MK-0499 from human ERG expressed in HEK293 cells at 10 uM […]; assay type: cell-based; details: hek293, 10 µM, 10 µM
hERG (KCNH2) = hERG (KCNH2) (Homo sapiens, UniProt Q12809); test: as §1; assay type: cell-based; details: HEK293 cells expressing human ERG, probe [35S]MK-0499
Rattus norvegicus [3] = test: Analgesic activity in SNL rat neuropathic pain model assessed as reversal of allodynia at 10 mg/kg, po after 2 hrs; assay type: functional
Rattus norvegicus [4] = test: Analgesic activity in SNL rat neuropathic pain model assessed as reversal of allodynia at 10 mg/kg, po after 4 hrs; assay type: functional
Rattus norvegicus [5] = test: Analgesic activity in SNL rat neuropathic pain model assessed as reversal of allodynia at 10 mg/kg, po after 3 hrs; assay type: functional
[6] = biological target: T1, Sodium channel protein type 9 subunit alpha; test: Inhibition of human Nav1.7 channel expressed in HEK293 cells at 1 uM by FRET assay; assay type: cell-based
Target sequence in this assay (Q15858 whole entry, looked up): as the sequence (Q15858 whole entry) above

[7] = Oral bioavailability in Sprague-Dawley rat at 3 mg/kg; assay type: ADME, organism-based; details: in vivo
[8] = Half life in Sprague-Dawley rat at 1 mg/kg, iv or 3 mg/kg, po; assay type: ADME, organism-based; details: in vivo
[9] = Plasma clearance in Sprague-Dawley rat at 1 mg/kg, iv or 3 mg/kg, po; assay type: ADME, organism-based

hERG (KCNH2), sequence (Q12809 whole entry): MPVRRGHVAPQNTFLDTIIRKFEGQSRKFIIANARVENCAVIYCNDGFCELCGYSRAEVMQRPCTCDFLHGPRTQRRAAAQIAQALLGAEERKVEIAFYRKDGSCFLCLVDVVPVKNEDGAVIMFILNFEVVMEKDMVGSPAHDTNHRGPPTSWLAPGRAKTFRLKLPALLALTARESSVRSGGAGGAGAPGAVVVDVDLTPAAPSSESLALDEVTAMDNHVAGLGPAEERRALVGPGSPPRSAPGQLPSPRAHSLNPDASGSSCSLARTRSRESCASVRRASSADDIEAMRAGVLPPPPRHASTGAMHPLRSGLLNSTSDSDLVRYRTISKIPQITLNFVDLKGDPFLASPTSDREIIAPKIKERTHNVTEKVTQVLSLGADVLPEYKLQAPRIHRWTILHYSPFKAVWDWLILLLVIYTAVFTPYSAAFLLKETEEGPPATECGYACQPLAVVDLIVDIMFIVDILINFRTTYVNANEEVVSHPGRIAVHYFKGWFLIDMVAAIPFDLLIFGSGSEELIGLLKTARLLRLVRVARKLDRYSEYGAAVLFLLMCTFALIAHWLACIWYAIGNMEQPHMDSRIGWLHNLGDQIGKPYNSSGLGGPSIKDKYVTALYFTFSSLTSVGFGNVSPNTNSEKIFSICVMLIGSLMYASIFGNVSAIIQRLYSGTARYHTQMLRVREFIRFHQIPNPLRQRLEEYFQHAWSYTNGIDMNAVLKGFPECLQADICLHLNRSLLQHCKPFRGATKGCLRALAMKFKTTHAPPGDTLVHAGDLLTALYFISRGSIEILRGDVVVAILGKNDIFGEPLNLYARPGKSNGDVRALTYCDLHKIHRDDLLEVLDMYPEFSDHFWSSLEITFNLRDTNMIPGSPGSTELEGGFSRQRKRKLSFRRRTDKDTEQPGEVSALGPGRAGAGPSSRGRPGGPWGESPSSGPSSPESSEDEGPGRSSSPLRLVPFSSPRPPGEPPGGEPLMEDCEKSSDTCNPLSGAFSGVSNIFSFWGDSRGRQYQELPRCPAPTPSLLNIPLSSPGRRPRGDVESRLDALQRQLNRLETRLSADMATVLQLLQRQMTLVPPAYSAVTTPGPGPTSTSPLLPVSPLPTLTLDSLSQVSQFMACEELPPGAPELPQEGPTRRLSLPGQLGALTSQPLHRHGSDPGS
Voltage-gated inwardly rectifying potassium channel KCNH2, sequence (Q12809 whole entry): as above

IC50 [1] [nM] | Structure (SMILES) | inhibition at 10 µM (hERG (KCNH2)) [%] | also measured
340 | O=C(NC1(c2ccccc2)CCC1)[C@@H]1CCC[C@H]1c1cc(-c2cccc(C(F)(F)F)c2O)on1 (stereo in doubt; 30) | 45 | 
> 5000 | O=C(NC1(c2ccccc2)CC(O)C1)[C@@H]1CCC[C@H]1c1cc(-c2ccccc2)on1 (some centres undefined) |  | 
190 | COc1cccc(-c2cc([C@@H]3CCC[C@H]3C(=O)NC3(c4ccccc4)CCC3)no2)n1 | 54 | 
180 | O=C(NC1(c2ccccc2)CCC1)[C@@H]1CCC[C@H]1c1cc(-c2ccccc2Cl)on1 | 76 | 
1700 | CC(NC(=O)[C@@H]1CCC[C@H]1c1cc(-c2ccccc2)on1)c1ccccc1 (some centres undefined) | 47 | 
390 | COc1ccccc1-c1cc([C@@H]2CCC[C@H]2C(=O)NC2(c3ccccc3)CCC2)no1 | 54 | 
210 | O=C(NC1(c2ccccc2)CCC1)[C@@H]1CCC[C@H]1c1cc(-c2cccc(O)c2)on1 | 64 | 
740 | O=C(NC1(c2ccccc2)CCC1)[C@@H]1CCC[C@H]1c1cc(-c2ccccc2C(F)(F)F)on1 | 91 | 
110 | O=C(NC1(c2cccc(F)c2)CCC1)[C@@H]1CCC[C@H]1c1cc(-c2ccccc2)on1 | 64 | 
120 | O=C(NC1(c2ccccc2)CCC1)[C@@H]1CCC[C@H]1c1cc(-c2ccccc2)on1 | 37 | 
220 | O=C(NC1(c2ccccc2)CCC1)[C@@H]1CCC[C@H]1c1cc(-c2cccc(C(F)(F)F)n2)on1 | 22 | bioavailability [7]: 36%; half-life [8]: 1.51 h; clearance [9]: 135 mL/min/kg
580 | O=C(NC1(c2ccccc2)CCCCC1)[C@@H]1CCC[C@H]1c1cc(-c2ccccc2)on1 |  | 
300 | O=C(NC1(c2ccccc2)CCC1)[C@@H]1CCC[C@H]1c1cc(-c2ccc(C(F)(F)F)cc2O)on1 | 72 | 
440 | O=C(NC1(c2ccccc2)CC1)[C@@H]1CCC[C@H]1c1cc(-c2ccccc2)on1 | 47 | 
370 | O=C(NC1(c2ccccc2)CCC1)[C@@H]1CCC[C@H]1c1cc(-c2cccc(OC(F)(F)F)c2)on1 | 55 | bioavailability [7]: 46%; half-life [8]: 2.6 h; clearance [9]: 89 mL/min/kg
590 | O=C(NC1(c2cccc(C(F)(F)F)c2)CCC1)[C@@H]1CCC[C@H]1c1cc(-c2ccccc2)on1 | 89 | 
220 | O=C(NC1(c2ccccc2)CCCC1)[C@@H]1CCC[C@H]1c1cc(-c2ccccc2)on1 | 85 | 
130 | O=C(NC1(c2ccccc2)CCC1)[C@@H]1CCC[C@H]1c1cc(-c2ccc(O)cc2)on1 | 15 | 

Continued, molecule first:

Structure (SMILES) | IC50 [1] [nM] | inhibition at 10 µM (hERG (KCNH2)) [%] | also measured
O=C(NC1(c2ccccc2)CC(F)C1)[C@@H]1CCC[C@H]1c1cc(-c2ccccc2)on1 (stereo in doubt; 18) | 160 |  | inhibition (INH) [2]: 59%
O=C(NC1(c2ccccc2)CCC1)[C@@H]1CCC[C@H]1c1cc(-c2cccc(C(F)(F)F)c2O)on1 (stereo in doubt; 30a) | 430 |  | 
COc1ccc(-c2cc([C@@H]3CCC[C@H]3C(=O)NC3(c4ccccc4)CCC3)no2)cc1 | 180 | 44 | 
O=C(NC1(c2ccccc2)CCC1)[C@@H]1CCC[C@H]1c1cc(-c2cccc(OC(F)(F)F)c2O)on1 | 260 | 47 | 
CN(Cc1ccc(-c2ccccc2S(N)(=O)=O)cc1)C(=O)[C@@H]1CCC[C@H]1C(=O)NCc1ccc(OC(F)(F)F)cc1 |  |  | Activity (Rattus norvegicus [3]): 30%; Activity (Rattus norvegicus [4]): 28%; Activity (Rattus norvegicus [5]): 35%
O=C(NCc1ccccc1)[C@@H]1CCC[C@H]1c1cc(-c2ccccc2)on1 |  | 35 | inhibition [6]: 37%
COc1cccc(-c2cc([C@@H]3CCC[C@H]3C(=O)NC3(c4ccccc4)CCC3)no2)c1 | 20 | 62 | 
O=C(NC1(c2ccccc2)CCC1)[C@@H]1CCC[C@H]1c1cc(-c2c(O)cccc2C(F)(F)F)on1 |  |  | inhibition [6]: 1%
O=C(NC1(c2ccccc2)CCC1)[C@@H]1CCC[C@H]1c1cc(-c2cccc(C(F)(F)F)c2O)on1 (stereo in doubt; 30b) | > 10000 |  | 
O=C(NC1(c2ccccc2)CC(F)C1)[C@@H]1CCC[C@H]1c1cc(-c2ccccc2)on1 (stereo in doubt; 17) | 180 | 46 | 
O=C(NC1(c2ccccc2)CCC1)[C@@H]1CCC[C@H]1c1cc(-c2ccccc2O)on1 |  | 54 | inhibition [6]: 44%
O=C(NC1(c2ccccc2)CC(F)(F)C1)[C@@H]1CCC[C@H]1c1cc(-c2ccccc2)on1 |  | 27 | inhibition [6]: 41%
O=C(NC1(c2ccc(F)cc2)CCC1)[C@@H]1CCC[C@H]1c1cc(-c2ccccc2)on1 | 84 | 81 | 
O=C(NC1(c2ccccc2)CCC1)[C@@H]1CCC[C@H]1c1cc(-c2cc(C(F)(F)F)ccc2O)on1 |  |  | inhibition [6]: 1%
CC(C)(NC(=O)[C@@H]1CCC[C@H]1c1cc(-c2ccccc2)on1)c1ccccc1 | 430 | 45 | 
O=C(NC1(c2ccccc2)CCC1)[C@@H]1CCC[C@H]1c1cc(-c2ccc(O)c(C(F)(F)F)c2)on1 |  |  | inhibition [6]: 0%
O=C(NC1(c2ccccc2)CCC1)[C@@H]1CCC[C@H]1c1cc(-c2cccc(=O)[nH]2)on1 |  |  | inhibition [6]: 0%
CC1(c2ccccc2)CC([C@@H]2CCC[C@H]2C(=O)NC2(c3ccccc3)CCC2)=NO1 (some centres undefined) |  |  | inhibition [6]: 8%
COC1CC(NC(=O)[C@@H]2CCC[C@H]2c2cc(-c3ccccc3)on2)(c2ccccc2)C1 (some centres undefined) | 380 | 51 | 
O=C(NC1(c2ccccc2F)CCC1)[C@@H]1CCC[C@H]1c1cc(-c2ccccc2)on1 | 450 | 40 | 
